Experiments:
[1] = target: full-length MALT1 protein (Strep-MALT1(1-824)-His) (Homo sapiens (Human), UniProt Q9UDY8); test: MALT1 Biochemical Protease Assay; conditions: read-out: MALT1_Biochemical activity (Ac-LRSR-amc) IC50; 10 nM FL MALT1, 200 μM Ac-LRSR-AMC, 50 min pre-incubation, 4 h at RT
Description: From this an ICso value (inhibitory concentration causing 50% inhibition) can be obtained.

[2] = tested on: IL6 secretion, OCI-LY3 cells; test: Human IL6 Mesoscale assay (OCI-LY3); assay type: cell-based; conditions: 24 h incubation
[3] = tested on: IL10 secretion, OCI-LY3 cells; test: Human IL10 Mesoscale assay (OCI-LY3); assay type: cell-based; conditions: 24 h incubation

Sequence of full-length MALT1 protein (Strep-MALT1(1-824)-His) (Q9UDY8 whole entry): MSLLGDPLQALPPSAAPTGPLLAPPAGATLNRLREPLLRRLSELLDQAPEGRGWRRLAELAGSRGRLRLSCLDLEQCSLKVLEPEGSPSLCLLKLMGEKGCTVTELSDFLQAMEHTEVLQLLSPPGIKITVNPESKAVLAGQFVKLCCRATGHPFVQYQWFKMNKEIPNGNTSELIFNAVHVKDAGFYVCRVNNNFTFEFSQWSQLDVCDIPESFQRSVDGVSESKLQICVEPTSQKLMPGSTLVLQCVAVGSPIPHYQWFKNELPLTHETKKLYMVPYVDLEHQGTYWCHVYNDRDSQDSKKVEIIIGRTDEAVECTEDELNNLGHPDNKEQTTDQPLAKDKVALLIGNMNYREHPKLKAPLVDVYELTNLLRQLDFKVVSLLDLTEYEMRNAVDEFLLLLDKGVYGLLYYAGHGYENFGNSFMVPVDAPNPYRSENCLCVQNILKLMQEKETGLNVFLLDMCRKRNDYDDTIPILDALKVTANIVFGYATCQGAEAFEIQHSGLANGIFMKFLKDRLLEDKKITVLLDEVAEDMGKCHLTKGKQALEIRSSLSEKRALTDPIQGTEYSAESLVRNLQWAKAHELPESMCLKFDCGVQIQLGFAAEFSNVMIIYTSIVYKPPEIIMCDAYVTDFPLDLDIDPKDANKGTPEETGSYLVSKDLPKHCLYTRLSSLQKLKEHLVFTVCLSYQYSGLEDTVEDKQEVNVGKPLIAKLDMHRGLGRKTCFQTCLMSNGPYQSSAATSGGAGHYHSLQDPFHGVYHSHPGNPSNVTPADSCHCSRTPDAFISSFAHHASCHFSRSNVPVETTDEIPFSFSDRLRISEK

IC50 [1] [µM] | IC50 [2] [µM] | IC50 [3] [µM] | SMILES
0.05 | 0.047 | 0.031 | O=C(Nc1cnc(-n2nccn2)c(C(F)(F)F)c1)c1cnn(-c2ccc(F)c3nccn23)c1C(F)(F)F [Cpd 4, N-(6-(2H-1,2,3-triazol-2-yl)-5-(trifluoromethyl)pyridin-3-yl)-1-(8-fluoroimidazo[1,2-a]pyridin-5-yl)-5-(trifluoromethyl)-1H-pyrazole-4-carboxamide]
1.02 |  |  | CO[C@@H](C)c1ncc(NC(=O)c2cnn(-c3ccc(Cl)n4nccc34)c2C(F)(F)F)cc1Cl (single isomer, unassigned) [Cpd 27, (*S)—N-(5-chloro-6-(1-methoxyethyl)pyridin-3-yl)-1-(7-chloropyrazolo[1,5-a]pyridin-4-yl)-5-(trifluoromethyl)-1H-pyrazole-4-carboxamide]
0.83 |  |  | CS(C)(=O)=Nc1ncc(NC(=O)c2cnn(-c3ccc(F)c4nccn34)c2C(F)(F)F)cc1C(F)(F)F [Cpd 30, N-(6-((dimethyl(oxo)-λ^6-sulfanylidene)amino)-5-(trifluoromethyl)pyridin-3-yl)-1-(8-fluoroimidazo[1,2-a]pyridin-5-yl)-5-(trifluoromethyl)-1H-pyrazole-4-carboxamide]
0.98 |  |  | CS(C)(=O)=Nc1ncc(NC(=O)c2cnn(-c3ccc(F)c4nccn34)c2C(F)(F)F)cc1Cl [Cpd 33, N-(5-chloro-6-((dimethyl(oxo)-λ^6-sulfanylidene)amino)pyridin-3-yl)-1-(8-fluoroimidazo[1,2-a]pyridin-5-yl)-5-(trifluoromethyl)-1H-pyrazole-4-carboxamide]
0.03 | 0.257 | 0.105 | O=C(Nc1cnc(-c2ncco2)c(Cl)c1)c1cnn(-c2ccc(F)c3nccn23)c1C(F)(F)F [Cpd 6, N-(5-chloro-6-(oxazol-2-yl)pyridin-3-yl)-1-(8-fluoroimidazo[1,2-a]pyridin-5-yl)-5-(trifluoromethyl)-1H-pyrazole-4-carboxamide]
0.026 | 0.123 | 0.023 | Cc1coc(-c2ncc(NC(=O)c3cnn(-c4ccc(F)c5nccn45)c3C(F)(F)F)cc2Cl)n1 [Cpd 10, N-(5-chloro-6-(4-methyloxazol-2-yl)pyridin-3-yl)-1-(8-fluoroimidazo[1,2-a]pyridin-5-yl)-5-(trifluoromethyl)-1H-pyrazole-4-carboxamide]
2.82 |  |  | CO[C@H](C)c1ncc(NC(=O)c2cnn(-c3ccc(F)c4nccn34)c2C(F)(F)F)cc1Cl (single isomer, unassigned) [Cpd 19, (*R)—N-(5-chloro-6-(1-methoxyethyl)pyridin-3-yl)-1-(8-fluoroimidazo[1,2-a]pyridin-5-yl)-5-(trifluoromethyl)-1H-pyrazole-4-carboxamide]
0.219 | 0.288 | 0.155 | NC(=O)c1ccc(-n2ncc(C(=O)Nc3ccnc(C(F)(F)F)c3)c2C(F)(F)F)c2ccnn12 [Cpd 12, 4-(5-(trifluoromethyl)-4-((2-(trifluoromethyl)pyridin-4-yl)carbamoyl)-1H-pyrazol-1-yl)pyrazolo[1,5-a]pyridine-7-carboxamide]
2.34 |  |  | CO[C@@H](C)c1ncc(NC(=O)c2cnn(-c3ccc(F)c4nccn34)c2C(F)(F)F)cc1Cl (single isomer, unassigned) [Cpd 17, (*S)—N-(5-chloro-6-(1-methoxyethyl)pyridin-3-yl)-1-(8-fluoroimidazo[1,2-a]pyridin-5-yl)-5-(trifluoromethyl)-1H-pyrazole-4-carboxamide]
0.081 | 0.24 | 0.129 | Cc1cnc(-c2ncc(NC(=O)c3cnn(-c4ccc(F)c5nccn45)c3C(F)(F)F)cc2Cl)o1 [Cpd 9, N-(5-chloro-6-(5-methyloxazol-2-yl)pyridin-3-yl)-1-(8-fluoroimidazo[1,2-a]pyridin-5-yl)-5-(trifluoromethyl)-1H-pyrazole-4-carboxamide]
0.457 |  |  | CS(=O)(=O)c1c(C(=O)Nc2cnc(-n3nccn3)c(Cl)c2)cnn1-c1ccc(F)c2nccn12 [Cpd 8, N-(5-chloro-6-(2H-1,2,3-triazol-2-yl)pyridin-3-yl)-1-(8-fluoroimidazo[1,2-a]pyridin-5-yl)-5-(methylsulfonyl)-1H-pyrazole-4-carboxamide]
0.562 |  |  | CO[C@H](C)c1ncc(NC(=O)c2cnn(-c3ccc(C#N)n4nccc34)c2C(F)(F)F)cc1Cl (single isomer, unassigned) [Cpd 26, (*R)—N-(5-chloro-6-(1-methoxyethyl)pyridin-3-yl)-1-(7-cyanopyrazolo[1,5-a]pyridin-4-yl)-5-(trifluoromethyl)-1H-pyrazole-4-carboxamide]
3.16 |  |  | CS(=N)(=O)c1ncc(NC(=O)c2cnn(-c3ccc(F)c4nccn34)c2C(F)(F)F)cc1C(F)(F)F (stereo not shown) [Cpd 31, 1-(8-fluoroimidazo[1,2-a]pyridin-5-yl)-N-(6-(S-methylsulfonimidoyl)-5-(trifluoromethyl)pyridin-3-yl)-5-(trifluoromethyl)-1H-pyrazole-4-carboxamide]
0.033 | 0.047 | 0.031 | O=C(Nc1cnc(-n2nccn2)c(Cl)c1)c1cnn(-c2ccc(Cl)n3nccc23)c1C(F)(F)F [Cpd 15, N-(5-chloro-6-(2H-1,2,3-triazol-2-yl)pyridin-3-yl)-1-(7-chloropyrazolo[1,5-a]pyridin-4-yl)-5-(trifluoromethyl)-1H-pyrazole-4-carboxamide]
0.019 | 0.022 | 0.019 | N#Cc1ccc(-n2ncc(C(=O)Nc3cnc(-n4nccn4)c(Cl)c3)c2C(F)(F)F)c2ccnn12 [Cpd 13, N-(5-chloro-6-(2H-1,2,3-triazol-2-yl)pyridin-3-yl)-1-(7-cyanopyrazolo[1,5-a]pyridin-4-yl)-5-(trifluoromethyl)-1H-pyrazole-4-carboxamide]
2.19 |  |  | O=C(Nc1cnc([C@H]2CCCO2)c(Cl)c1)c1cnn(-c2ccc(Cl)c3nccn23)c1C(F)(F)F (single isomer, unassigned) [Cpd 18, (*R)—N-(5-chloro-6-(tetrahydrofuran-2-yl)pyridin-3-yl)-1-(8-chloroimidazo[1,2-a]pyridin-5-yl)-5-(trifluoromethyl)-1H-pyrazole-4-carboxamide]
0.038 | 0.083 | 0.047 | N#Cc1ccc(-n2ncc(C(=O)Nc3cnc(-n4nccn4)c(Cl)c3)c2C(F)(F)F)n2ccnc12 [Cpd 2, N-(5-chloro-6-(2H-1,2,3-triazol-2-yl)pyridin-3-yl)-1-(8-cyanoimidazo[1,2-a]pyridin-5-yl)-5-(trifluoromethyl)-1H-pyrazole-4-carboxamide]
0.087 | 0.245 | 0.2 | O=C(Nc1cnc([C@@H]2CCCO2)c(Cl)c1)c1cnn(-c2ccc(Cl)n3nccc23)c1C(F)(F)F (single isomer, unassigned) [Cpd 21, (*S)—N-(5-chloro-6-(tetrahydrofuran-2-yl)pyridin-3-yl)-1-(7-chloropyrazolo[1,5-a]pyridin-4-yl)-5-(trifluoromethyl)-1H-pyrazole-4-carboxamide]
0.457 |  |  | CO[C@@H](C)c1ncc(NC(=O)c2cnn(-c3ccc(C#N)n4nccc34)c2C(F)(F)F)cc1Cl (single isomer, unassigned) [Cpd 25, (*S)—N-(5-chloro-6-(1-methoxyethyl)pyridin-3-yl)-1-(7-cyanopyrazolo[1,5-a]pyridin-4-yl)-5-(trifluoromethyl)-1H-pyrazole-4-carboxamide]
6 |  |  | Cc1cc(NC(=O)c2cnn(-c3ccc(F)c4nccn34)c2C(F)(F)F)cnc1N=S(C)(C)=O [Cpd 29, N-(6-((dimethyl(oxo)-λ^6-sulfanylidene)amino)-5-methylpyridin-3-yl)-1-(8-fluoroimidazo[1,2-a]pyridin-5-yl)-5-(trifluoromethyl)-1H-pyrazole-4-carboxamide]
0.977 |  |  | O=C(Nc1cnc([C@H]2CCCO2)c(Cl)c1)c1cnn(-c2ccc(Cl)n3nccc23)c1C(F)(F)F (single isomer, unassigned) [Cpd 22, (*R)—N-(5-chloro-6-(tetrahydrofuran-2-yl)pyridin-3-yl)-1-(7-chloropyrazolo[1,5-a]pyridin-4-yl)-5-(trifluoromethyl)-1H-pyrazole-4-carboxamide]
0.355 |  |  | O=C(Nc1cnc([C@@H]2CCCO2)c(Cl)c1)c1cnn(-c2ccc(Cl)c3nccn23)c1C(F)(F)F (single isomer, unassigned) [Cpd 20, (*S)—N-(5-chloro-6-(tetrahydrofuran-2-yl)pyridin-3-yl)-1-(8-chloroimidazo[1,2-a]pyridin-5-yl)-5-(trifluoromethyl)-1H-pyrazole-4-carboxamide]
1.32 |  |  | CO[C@H](C)c1ncc(NC(=O)c2cnn(-c3ccc(Cl)n4nccc34)c2C(F)(F)F)cc1Cl (single isomer, unassigned) [Cpd 28, (*R)—N-(5-chloro-6-(1-methoxyethyl)pyridin-3-yl)-1-(7-chloropyrazolo[1,5-a]pyridin-4-yl)-5-(trifluoromethyl)-1H-pyrazole-4-carboxamide]
8.13 |  |  | CS(C)(=O)=Nc1ncc(NC(=O)c2cnn(-c3ccc(F)c4nccn34)c2C(F)(F)F)cc1F [Cpd 32, N-(6-((dimethyl(oxo)-λ^6-sulfanylidene)amino)-5-fluoropyridin-3-yl)-1-(8-fluoroimidazo[1,2-a]pyridin-5-yl)-5-(trifluoromethyl)-1H-pyrazole-4-carboxamide]
0.251 |  |  | N#Cc1ccc(-n2ncc(C(=O)Nc3cnc([C@H]4CCCO4)c(Cl)c3)c2C(F)(F)F)c2ccnn12 (single isomer, unassigned) [Cpd 24, (*R)—N-(5-chloro-6-(tetrahydrofuran-2-yl)pyridin-3-yl)-1-(7-cyanopyrazolo[1,5-a]pyridin-4-yl)-5-(trifluoromethyl)-1H-pyrazole-4-carboxamide]
